Ten compounds from patent US4932991A, “Thiopyridine-N-oxides, thiopyridines, and thiopyrimidines as urease inhibitors” (Tennessee Valley Authority, priority 1988, dated 1990) can be followed below.

The assay concerns soil urease. Kind of assay: Urea hydrolysis in bands of urea in soil (banded soil system urease inhibition test). Type of assay: biochemical. To be noted: for % inhibition, 3 days (as measured by percent urea unhydrolyzed) / % inhibition, 6 days (as measured by percent urea unhydrolyzed): Hastings silt loam soil, 25° C., inhibitor 41 mg/band with urea 410 mg/band (10% of urea wt/wt), two replicates; for % inhibition, 3 days (as measured by percent urea unhydrolyzed): 3 days incubation; for % inhibition, 6 days (as measured by percent urea unhydrolyzed): 6 days incubation; for urease inhibition effectiveness in soil (in words): banded soil system, three- and six-day tests, compared with PPDA. The procedure:
Test compounds in Example I, infra, were evaluated in soil systems by an alternative procedure in which powdered mixtures of urea and test compounds were applied in narrow bands in the soil rather than being mixed throughout the soil. The banded configuration is not only applicable to banded applications but also results in concentration gradients of urea, urea hydrolysis products, test compounds, and test compound decomposition products similar to those in the immediate vicinity of urea granules containing test compounds. Another advantage of the banded configuration compared with mixing throughout the soil is that slightly soluble test compounds can be easily band applied, whereas it is difficult to achieve a known degree of mixing of a small quantity of slightly soluble test compound with soil. The banded configuration also enables testing for urease inhibition under realistic soil conditions prior to the development of techniques for cogranulating a wide range of test compounds with urea.
Specifics of the procedure for evaluating test compounds in Example I were as follows. Urease-active soil (Hastings silt loam) was moistened to a moisture content of 20% (dry weight basis) and preincubated at room temperature for two days. Plexiglass containers (6×6×6 cm) were one-half filled with soil and packed to a bulk density of 1.1 g/cm^3. Urea or urea plus inhibitor (thoroughly mixed) was distributed in a narrow band 6 cm long and about 0.5 cm wide on the soil surface. The containers then were filled with soil, again packing to a bulk density of 1.1 g/cm^3. The containers were incubated at 25° C. for the desired reaction period, after which the containers were frozen to about -5° C. to halt urea hydrolysis. Immediately prior to extracting the remaining urea from the soil, said soil was allowed to thaw. Soil from each container was thoroughly mixed, and a 10-g sample was extracted with 100 ml of 2M KCl containing phenylmercuric acetate to prevent urea hydrolysis during handling [L. A. Douglass, J. M. Bremner, Soil Sci. Soc. Am. Proc. 34, 859-862 (1970a)]. Urea in the extracts was determined with an automated version of the colorimetric procedure [L. A. Douglass, J. M. Bremner, Anal. Letters 3, 79-87 (1970b)].
Urease-active soil (Hastings silt loam) was moistened to a moisture content of 20% and preincubated at room temperature for two days. Plexiglass containers (6×6×6 cm) were one-half filled with soil and packed to a bulk density of 1.1 g/cm^3. Urea or urea plus inhibitor (thoroughly mixed) was distributed in a narrow band some 6 cm long and about 0.5 cm wide on the surface of the soil. The containers then were filled with soil and again packed to a bulk density of 1.1 g/cm^3. The containers were incubated at 25° C. for the desired reaction period.
The soil from each container was thoroughly mixed, and 10-g sample was extracted with 100 ml of 2M KCl containing 5 ppm phenylmercuric acetate to prevent urea hydrolysis during handling [L. A. Douglass, J. M. Bremner, Soil Sci. Soc. Am. Proc.34, 859-862 (1970); L. A. Douglass, J. M. Bremner, Anal. Letters 3, 79-87 (1970b)]. The urea in the extracts was determined colorimetrically as a measure of the unhydrolyzed urea.

Entries after “also recorded” stand apart in the source; their conditions may differ.

On to `[O-][n+]1ccccc1` [PNO, Pyridine-N-Oxide], for which the “urease inhibition effectiveness in soil (in words)” value (shortened to “urease inhibition effectiveness”) is on record as “significantly lower inhibition”. For the setting “Test Series II”, the “% inhibition, 3 days (as measured by percent urea unhydrolyzed)” value is given as 11.3% and the “% inhibition, 6 days (as measured by percent urea unhydrolyzed)” value was 0%.
With `NP(N)(=O)Oc1ccccc1` [PPDA, Phenyl phosphorodiamidate], where the note is “Test Series I”, the “% inhibition, 3 days (as measured by percent urea unhydrolyzed)” value is given as 95.6% and the “% inhibition, 6 days (as measured by percent urea unhydrolyzed)” value was determined as 59.6%. Where the note is “Test Series II”, the “% inhibition, 3 days (as measured by percent urea unhydrolyzed)” value was 92.1% and the “% inhibition, 6 days (as measured by percent urea unhydrolyzed)” value amounted to 54.2%.
In the case of `[O-][n+]1ccccc1SSc1cccc[n+]1[O-]` [DTPNO, 2,2-Dithiobis-pyridine-N-oxide], the “urease inhibition effectiveness” value is “as effective an inhibitor as PPDA; also recorded: excellent urease inhibition characteristics”. Besides, where the note is “Test Series I”, the “% inhibition, 3 days (as measured by percent urea unhydrolyzed)” value is reported as 92.2% and the “% inhibition, 6 days (as measured by percent urea unhydrolyzed)” value is listed as 46.4%. For the same compound, where the note is “Test Series II”, the “% inhibition, 3 days (as measured by percent urea unhydrolyzed)” value came to 92.6% and the “% inhibition, 6 days (as measured by percent urea unhydrolyzed)” value is 38.9%.
Turning to `Oc1cccnc1S` [MPOL, 2-Mercapto-3-pyridinol], the “urease inhibition effectiveness” value was “significantly lower inhibition”. Besides, for the setting “Test Series II”, the “% inhibition, 3 days (as measured by percent urea unhydrolyzed)” value amounted to 40.1% and the “% inhibition, 6 days (as measured by percent urea unhydrolyzed)” value came to 0%.
Turning to `O=[N+]([O-])c1ccc(SSc2ccc([N+](=O)[O-])cn2)nc1` [DTNP, 2,2-Dithio-5-nitropyridine], for the setting “Test Series I”, the “% inhibition, 3 days (as measured by percent urea unhydrolyzed)” value is listed as 8.6% and the “% inhibition, 6 days (as measured by percent urea unhydrolyzed)” value was found to be 0.5%.
Consider `Sc1ccccn1` [MP, 2-Mercaptopyridine], for which the “urease inhibition effectiveness” value is “excellent urease inhibitors”. Under “Test Series II”, the “% inhibition, 3 days (as measured by percent urea unhydrolyzed)” value is listed as 80.2% and the “% inhibition, 6 days (as measured by percent urea unhydrolyzed)” value turned out to be 37.8%.
The matching figures for `[O-][n+]1ccccc1S` [MPNO, 2-Mercaptopyridine-N-Oxide]: “excellent urease inhibition characteristics”, 76.8% and 32.2%.
Take `c1ccc(-c2ccccn2)nc1` [DP, 2,2'-Dipyridyl]: under “Test Series I”, the “% inhibition, 3 days (as measured by percent urea unhydrolyzed)” value was determined as 12.0% and the “% inhibition, 6 days (as measured by percent urea unhydrolyzed)” value was found to be 0.2%.
In the case of `c1ccc(SSc2ccccn2)nc1` [AT, Aldrithiol], the “urease inhibition effectiveness” value is given as “possesses even the smallest urease activity”. Besides, under “Test Series I”, the “% inhibition, 3 days (as measured by percent urea unhydrolyzed)” value amounted to 42.9% and the “% inhibition, 6 days (as measured by percent urea unhydrolyzed)” value is 0.7%.
Regarding `Sc1ncccn1` [MPM, 2-Mercaptopyrimidine], the “urease inhibition effectiveness” value was “excellent urease inhibitors”. Besides, for the setting “Test Series II”, the “% inhibition, 3 days (as measured by percent urea unhydrolyzed)” value was found to be 72.8% and the “% inhibition, 6 days (as measured by percent urea unhydrolyzed)” value is given as 44.6%.
